Broadly, the melting point is the temperature of the solid-liquid transition.

The structures appear in SMILES notation.

In turn, `O=C(CCc1ccccc1)N[C@H]1COC1=O` gave a melting point of 104 to 106 °C.
`O=C(NN1CCOCC1)OCCCCCCOC(=O)NN1CCOCC1` came in with a melting point of 197 to 199 °C.
In the case of `O=C1CN(C(=O)OCc2ccccc2)CC(=O)O1` it was 133 to 137 °C; in that of `O=C1Cc2cc(F)ccc2N1`, 131 to 133 °C; in that of `CCCCCSc1ccc(CN(O)C(N)=S)s1`, 112 to 114 °C.
The figure for `CC(=O)c1cccc(Oc2ncccc2OCCCc2ccncc2)c1` is 117 to 119 °C.
For the compound `O=C(Nc1cccc2cc(C(=O)N3CCCCC3)[nH]c12)c1cccs1`, the melting point fell in the range of 131 to 132 °C.
In the case of `COc1cc(C)nc(S(C)(=O)=O)n1`, the melting point was determined as 80 °C.
The figure for `O=C1CC[C@H](CC(c2ccc(S(=O)(=O)C3CC3)cc2)c2ccc(-c3nccs3)[nH]2)C1` (stereo partly specified) is 165 to 167 °C; for `COc1cc(OC)nc(-c2c(N)n(S(=O)(=O)C(F)F)c3ccccc23)n1` it is 156 to 158 °C.
`COc1ccc(-c2cc(-c3ccccc3)nc(C)c2C(=O)Cl)cc1OC` displayed a melting point of 140 °C.
Compound `OC1(c2ccoc2)CN2CCC1CC2` (stereo unspecified) registered a melting point of 130 to 133 °C.
Consider `COc1ccccc1Oc1c(N)nc(N2CCOCC2)nc1OCCO`, for which the melting point is 136 to 138 °C.
The figure for `COc1ccc(C(=O)Nc2ccc(C(=O)Nc3ccccc3)cc2)cc1C12CC3CC(CC(C3)C1)C2` is 265 to 268 °C; for `CCCCCCCCCCCCc1ccc(S(=O)(=O)Nc2nnc(CC(=O)O)s2)cc1` it is 194 to 195 °C.
In the case of `CCOC(=O)NCc1cc(-c2ccc(Cl)cc2)no1`, the melting point was 137 °C.
The figure for `CC(C)N1CC(OCC2CC2)(C(F)(F)F)c2cc(Cl)ccc2NC1=O` (stereo unspecified) is 170 °C; for `CCC(CO)Nc1nc(C)nc2c(C)nn(C)c12` (stereo unspecified) it is 165 to 168 °C; for `Cc1ccc(-c2[nH]c(-c3ccc([N+](=O)[O-])cc3)nc2C(=O)Nc2nccs2)cc1` it is 256 to 258 °C.
`CC(=O)SC(CC(=O)c1ccc(Oc2cccc(Cl)c2)cc1)C(=O)O` (stereo unspecified) returned a melting point of 122 to 125 °C.
`Cc1ccc(-c2[nH]c(-c3ccccc3[N+](=O)[O-])nc2C(=O)Nc2nccs2)cc1` registered a melting point of 203 to 204 °C.
In the case of `CC(Br)c1ccc(-c2ccc(C(=O)c3ccccc3)cc2)cc1` (stereo unspecified) it was 132 to 134 °C.
The figure for `COc1ccc(C2=NN(C3CCN(S(=O)(=O)c4cccc(C(=O)O)c4)CC3)C(=O)C2(C)C)cc1OC` is 244 °C; for `CCCSc1sc(C(N)=O)c2c1-c1[nH]ncc1CC2` it is 163 to 164 °C; for `NC1CCN(c2ccc3c4c(cccc24)C(=O)N(O)C3=O)C1` (stereo unspecified) it is 238 to 242 °C.
`COc1cc(C2CCCCC2)ccc1C(O)CCC(=O)O` (stereo unspecified) showed a melting point of 105 to 106 °C.
Regarding `NC(=O)c1cc2c(Oc3ccc(N)cc3)cncc2s1`, the melting point is more than 250 °C.
In the case of `Nc1cc(-c2ccccc2)cc2nc(-c3ccccc3)nn12` it was 214 to 216 °C.
Compound `CC(C)C(C(=O)O)c1ccc2ccccc2c1` (stereo unspecified) came in with a melting point of 129 to 130 °C.
In the case of `CCOC(=O)c1ccc(NC(=O)c2ccc(OCCCCc3ccccc3)cc2)c(O)c1` it was 156 to 158 °C; in that of `Cc1c2c(c(C(O)c3ccc(C(C)C)cc3)c(C)c1NC(=O)OC(C)(C)C)OC(C)C2` (stereo unspecified), 141 to 142 °C.
`CC(C)(C#N)c1cc(Cn2cncn2)cc(C(N)=O)c1` showed a melting point of 144 to 145 °C.
In the case of `Cc1cc(O)ccc1C(=O)O`, the melting point fell in the range of 160 to 161 °C.
The figure for `O=C(CCCCCCS(=O)c1ccc(Cl)cc1)NO` (stereo unspecified) is 103 to 105 °C; for `Cc1cc(-c2c(F)c(F)c3c(=O)c(C(=O)O)cn4c3c2OC[C@@H]4C)cc(C)n1` it is 307 to 310 °C.
`Cc1nc2cnccc2o1` yielded a melting point of 56 to 58 °C.
The figure for `COc1cccc2cc(CNCCN3C(=O)CC4(CCCC4)CC3=O)oc12` is 156 to 158 °C; for `CCCCC(=O)NCc1ccc(C#CCCOCCCCCCNCc2ccccc2)cc1` it is 66 to 67 °C.
In the case of `Cc1cc(C(=O)NC2CC2)ccc1N1CCNCC1` it was 172 to 173 °C; in that of `CCOC(=O)c1cn(C)c2cc(C)sc2c1=O`, 143 to 144 °C; in that of `CC(=O)NNc1ccc([N+](=O)[O-])cc1`, 207 to 209 °C.
Compound `CCc1c2ccccc2nc2c1c(C)nn2-c1ccccn1` displayed a melting point of 112 to 114 °C.
In the case of `CCN(CC)C(=O)Nc1ccc2oc3c(c2c1)CCCC3` it was 179 to 180 °C.
`C[C@@H](N1CCN(c2ccc(-n3cnn(Cc4ccc(C(F)(F)F)cc4C(F)(F)F)c3=O)cc2)CC1)[C@](O)(Cn1cncn1)c1ccc(F)cc1F`: the melting point was in the range of 146 to 148 °C.
The figure for `O=Cc1c[nH]c2ccc(-c3ccc4[nH]cnc4c3)cc12` is more than 280 °C; for `CNC(=O)c1ccccc1Nc1nc(Nc2cccc3c2N(C)CCNC3=O)ncc1Cl` it is 282 to 284 °C.
In turn, `O=C(O)c1n[nH]c(=O)c2cc(F)ccc12` came in with a melting point of 222 to 224 °C.
In the case of `O=c1[nH]cnc2cc(O)c(O)cc12` it was more than 250 °C; in that of `Cn1cc(CO)c(=O)c2ccc(Br)cc21`, more than 300 °C.
In the case of `O=C(NCC(F)(F)F)c1ccc(-c2ccc3nnn(Cc4ccc5ncccc5c4)c3n2)cc1F` it was 194 to 196 °C; in that of `CCc1c(O)cc(O)c(C(=O)c2ccccc2)c1CC(=O)N1CCN(c2ccccc2C#N)C(=O)C1`, 259 to 261 °C.
The figure for `NC(=O)c1c(C(F)(F)F)nn(-c2c(Cl)cc(C(F)(F)F)cc2Cl)c1N` is 169 to 171 °C.
`Cc1cccnc1C(CO)COc1ccc([N+](=O)[O-])cc1` (stereo unspecified) came in with a melting point of 135 to 136 °C.
In the case of `Cc1ccc2c(O)cc(=O)oc2c1` it was 179 to 182 °C; in that of `CCOC(=O)CC(C(=O)c1ccc(OC2CCN(C(=O)OC(C)(C)C)CC2)cc1)c1ccccn1` (stereo unspecified), 118 to 120 °C.
The figure for `CCC(NCC(F)(F)F)c1ccc(Cl)c2nc3n(c12)CCCN3c1ccc(Cl)cc1Cl` (stereo unspecified) is 133 to 135 °C.
For the compound `CCCCC1CC(=O)C2(C)CCC3=C4CCC(=O)C=C4CCC3C12` (stereo unspecified), the melting point was 159 to 161 °C.
Consider `CNS(=O)(=O)CCS(C)(=O)=O`, for which the melting point is 116 to 117 °C.
In turn, `CC(C)C(C#N)c1ccc(OCc2ccccc2)c(OCc2ccccc2)c1` (stereo unspecified) registered a melting point of 75 to 76 °C.
The figure for `Cc1ccc(-c2cccn2-c2ccc(S(C)(=O)=O)cc2)cc1` is 186 to 187 °C; for `CC1(C)CCS(=O)(=O)N1` it is 72 °C; for `CN(Cc1cccc2c1C(=O)N(C1CCC(=O)NC1=O)C2=O)C(=O)Nc1ccc2ccccc2c1` (stereo unspecified) it is more than 260 °C.
The figure for `CN(O)C(=O)Nc1ccc(Oc2ccc(NC(=O)N(C)O)cc2)cc1` is 183 to 184 °C; for `N#Cc1ccc(OCCCCCI)cc1` it is 51 to 54 °C.
In turn, `Nc1ccc2c(c1)c(CC(=O)O)cc(=O)n2Cc1ccc(Cl)cc1` yielded a melting point of 196 to 199 °C.
For the compound `N#CC(F)(F)C(O)(Cn1cncn1)c1ccc(F)cc1F` (stereo unspecified), the melting point lay in the range of 130 to 132 °C.
In the case of `CCOC(=O)c1c(C)nc2c(cnn2CC)c1O` it was 118 to 120 °C.
The figure for `CNC(=O)c1cc(-n2cnn(Cc3ccc(F)cc3)c2=O)n[nH]1` is 268 to 269 °C; for `CC(C)(C)NC(=S)Nc1cc(Br)cc(Br)c1` it is 172 to 174 °C; for `CC(=O)SCCN(CCc1ccccc1)C(=O)N[C@@H](Cc1ccc([N+](=O)[O-])cc1)C(=O)NCCC(=O)O` it is 114 to 118 °C.
In the case of `O=C1c2ccccc2C(=O)c2c(NCCN3CCCCC3)ccc(NCCN3CCCCC3)c21` it was 140 to 141 °C; in that of `COc1ccc(Cl)cc1C(=O)c1cc(Cl)ccc1OC`, 108 °C.
Take `CSc1nsc(NC(=O)C(C)(C)C)c1C(N)=O`: the melting point is 142 to 143 °C.
On to `CC(C)(C)OC(=O)NC(Cc1ccccc1)C(O)CNCC(O)C(Cc1ccc(OCC(=O)N2CCOCC2)cc1)NC(=O)OC(C)(C)C` (stereo unspecified), for which the melting point fell in the range of 118 to 120 °C.
The figure for `CC(Oc1cccc2ccoc12)C(N)=NO` (stereo unspecified) is 92 to 94 °C; for `OCC1OC(n2cnc3c(NCc4cccc(O)c4)ncnc32)C(O)C1O` (stereo unspecified) it is 196 °C.
Regarding `CN1CCC(Oc2ccc(NC(=O)n3ccc4cc(Oc5cc(CC(N)=O)ncn5)ccc43)cc2C(F)(F)F)CC1`, the melting point fell in the range of 200 to 201 °C.
For `C[C@H](CSC(=O)c1ccccc1)C(=O)N1C(=O)N(Cc2ccccc2)C[C@H]1C(=O)OC(C)(C)C`, the melting point is 104 to 106 °C.
Compound `C=C(C)C(C(=O)OC(C)(C)C)C1(CC(C)C)CCN(CCc2ccccc2)C1=O` (stereo unspecified) showed a melting point of 54.5 to 56 °C.
Regarding `CCCc1nc2c(N)nc3cc(OCc4ccc(Cl)cc4)ccc3c2n1CC(C)C`, the melting point lay in the range of 215 to 217 °C.
In the case of `COc1ccc(CN(C)CCCSc2ccc(NC(=O)c3cccc4c(=O)c5cccc(F)c5[nH]c34)cc2)cc1OC` it was 120 to 130 °C; in that of `CCc1cc2c(cc1Cl)C=C(C(=O)O)C(C(F)(F)F)O2` (stereo unspecified), 171 to 172 °C.
The figure for `COCCON1C(=O)C(c2c(C)cc(C)cc2C)C(=O)C12CCN(N(C)C)CC2` (stereo unspecified) is 108 °C; for `CCCc1c(OCCCSc2nnc(NC(=O)C(=O)OCC)s2)ccc(C(C)=O)c1O` it is 146 to 147 °C.
With `C[C@@H](NC(=O)c1c[nH]c2ncc(-c3nn(CCO)c4cc(Cl)ccc34)nc12)C(=O)N1CC(C#N)C1`, the melting point was 225 to 250 °C.
`COC(C=Cc1ccccc1)=C1C(=O)C=C(C)C1=O` showed a melting point of 86 °C.
In the case of `CCCCCCOc1ccc(C(=O)Nc2ccc(-n3nc(C(F)(F)F)cc3C(F)(F)F)cc2)cc1` it was 153 to 155 °C; in that of `CC(CNC(=O)CN1C(=O)CCC1C)N1CCCCC1` (stereo unspecified), 111 to 112 °C; in that of `CCOC(=O)c1nc2ccccc2c(=O)n1C`, 48 to 50 °C.
Regarding `CCC1CC(=O)C=C(c2ccc(OCC(=O)O)c(Cl)c2Cl)C1` (stereo unspecified), the melting point lay within 163 to 165 °C.
The figure for `CCOC(=O)c1c(CC)ncnc1NCCc1ccc(CCOS(C)(=O)=O)cc1` is 84 to 86 °C.

The values are drawn from a melting point compilation (Tetko et al.; mined from patent text by program, amines drawn as free bases though some values may be those of a salt).
